The subject of one data set is ERRα mRNA. The experiment in a line: ERRα mRNA expression (Northern blot) in RC cells treated with hormones or growth factors. It is filed as cell-based, rat. Conditions: for effect of acute exposure on ERRα mRNA levels: 24 hours beginning at day 9 or day 15 (E2, D3) or day 7 and day 15 (TGFβ); for stimulation of ERRα mRNA expression at times later than day 6 / stimulation (increase) of ERRα mRNA expression: RC cells treated continuously; for stimulation (increase) of ERRα mRNA expression: E2 10^−8M, D3 10^−9M, TGFβ 10^−10 M. Here is the method:
(§1) Cells were enzymatically isolated from the calvaria of 21 d Wistar rat fetuses by sequential digestion with collagenase as described previously (Bellows, 1986). Cells obtained from the last four of the five digestion steps (populations II-V) were pooled and plated in T-75 flasks in α-MEM containing 15% heat-inactivated FBS (Flow Laboratories, McLean, Va.) and antibiotics comprising […] penicillin G (Sigma Chemical Co., St. Louis, Mo.), […] gentamycin (Sigma), and […] fungizone (Flow Laboratories). After 24 h incubation, attached cells were washed with PBS to remove nonviable cells and other debris, and then collected by trypsinization using 0.01% trypsin in citrate saline. Aliquots were counted with a Coulter Counter (Coulter Electronics, Hialeah Fla.), and the remaining cells were resuspended in the standard medium described above. The resuspended cells were plated into 100 mm tissue culture dishes at 10^5 cells/dish, into 35 mm tissue culture dishes at 2×10^4/dish and in 24 wells plates at 10^4 cells/well. […] Medium was changed every 2 days. All dishes were incubated at 37° C. in a humidified atmosphere in a 95% air/5% CO2 incubator.
Total RNA was extracted with guanidine from RC cells at different times of the culture corresponding to different stages of proliferation, differentiation and bone nodule formation (Current Protocols in Molecular Biology, vol. 1, 1996). Northern blots were prepared and hybridized with a 750bp fragment corresponding to the rat 3′ UTR of ERRα according to standard procedures (Chirgwin et al, 1979). Rat α1 COLL-I (Genovese et al.) was a 900bp cDNA PstI fragment containing the entire 3′ noncoding region and one-half of the C-terminal of the propeptide of the α1 chain of type I. Rat bone/liver/kidney ALP (Noda et al., 1987) was a 600 bp cDNA EcoRI fragment obtained by digesting pRAP54 with BssHII-XhoI to remove 1.8 kb of the 5′ region and religating the blunt ends. Rat OPN was a 700 bp cDNA BamHI-EcoRI fragment obtained by digesting the full length cDNA with PvuI to remove 800 bp of 5′ region and ligating the blunt ended fragment into SmaI cut pGEM-7Zf(+) vector (Promega, Madison, Wis.). Rat OCN was a partial cDNA containing 350 bp of the 3′ UTR isolated with OCN-specific primers from a λgt11 library prepared from ROS 17/2.8 cells, rat BSP was a partial cDNA containing 500bp of 3′ region isolated with BSP-specific primers from a λgt11 library prepared from RC cells forming bone nodules, and rat L32 was generated from RC cell mRNA by PCR using specifics primers; the identities of the OCN, BSP and L32 probes were confirmed by sequencing (Liu et al., 1994).

The test system of another data set is ERRα. The experiment in a line: Immunocytochemistry for ERRα on bone nodules after oligonucleotide treatment. Conditions: 24 h of treatment; 1 μM. The data set is classed as cell-based, rat. The protocol: Immunolabelling of cultures was done essentially as described previously (Turksen, 1991; Turksen, 1992). Cultures were rinsed with PBS, fixed with 3.7% formaldehyde in PBS and permeabilized with methanol at −20° C. Frozen sections were fixed 10 min in cold acetone. Paraffine sections were treated deparaffined in xylene, then rehydrated in 100%, 95% and 70% ethanol and water. After rinsing, cells in dishes or frozen, paraffine sections were incubated for 1 h at room temperature with 10% normal serum in PBS for ERRα and ERα and in 3% BSA in PBS (denaturated) for ERβ OCN, ALP, OPN, and BSP. After rinsing, cells or sections were incubated for 1.5 hours with appropriate dilutions of primary antibodies (1/50, anti-ERRα; anti-ERα or anti-ERβ (MC-20 or Y-19, respectively; Santa Cruz Biotechnology, Inc))(Shim et al, 1999; Saji et al, 2000; Tremblay et al 1999). The anti-rat OCN antiserum was kindly provided by Dominique Modrowski (INSERM U349, Hopital Lariboisiere, Paris, France) and used at 1/100 dilution. The anti-OPN MPIIIB10) and anti-BSP (WWVIDI) antibodies were purchased from the Hybridoma Bank (Iowa City, Iowa) and used at a 1/800 and 1/500 dilution respectively. […]

The test system of data set [1] is ALP, BSP, OPN, OCN, cbfa1, COLLI, Cyclin D1, c-Fos, Bcl2, Bax. The experiment in a line: RT-PCR of osteoblast, proliferation and apoptosis markers in antisense-treated RC cells. The data set is classed as cell-based, rat. The protocol: Samples of total cellular RNA (1.5-5 μg) were reverse-transcribed using oligo dT and the first strand synthesis kit of Superscript™ II, Gibco BRL. PCR was performed with specific primers specific for ERRα. Primers, located in different exons, were as follows: […]
Osteoblast-associated and other markers were also amplified by PCR using specific primers for rat OCN, OPN, ALP, BSP, Cbfa1, COLL I (collagen type I α chain), C-fos, Cyclin D1, Bax and Bcl-2. PCR was done for 25 cycles (94° C. for 1 min, 55° C. for 1 min, 72° C. for 1 min and a final elongation step of 7 min at 72° C.) for OCN, OPN, ALP, BSP, L32, Bax and 30 cycles for Bcl-2, 32 cycles for c-Fos, 35 cycles for Cyclin D1 and Cbfa1 (with annealing temperatures of 58° C. and 62° C. respectively and 23 cycles for COLLI with annealing temperature of 59° C.
(§2) The resuspended RC cells were plated in 24 wells plates at 10^4 cells/well. Antisense oligonucleotide inhibition of ERRα expression was accomplished with a 20-base phosphorotbioate-modified oligonucleotide, localized to the A/B domain. The ERRα antisense oligonucleatide sequence was: 5′[…]-3′(SEQ ID NO:30). Control dishes were treated with the complementary sense oligonucleotide or no oligonucleotide. Preliminary experiments were done to determine effective oligonucleotide concentrations that were not toxic. […] Medium was changed every 2 days and fresh oligonucleotides were added. mRNA was collected at day 6 for the proliferation experiments and at day 15 for the differentiation experiments. Nodules were counted at 15 days.

Data set [2] has as its system primary rat calvaria (RC) cells. The experiment in a line: Mineralized bone nodule formation (von Kossa) in RC cell cultures treated with antisense/sense oligonucleotides. Conditions: for decrease in mineralized bone nodule formation: treated day 5 to day 11; for decrease in mineralized bone nodule number: treated days 1-6 then normal differentiation medium, day 15. It is filed as cell-based. Here is the method:
as §1
For quantification of nodule formation, dishes or wells were fixed and stained by the Von Kossa technique and bone nodules were counted on a grid (Bellows et al., 1986; Bellows and Aubin, 1989). Results are plotted as the mean number of nodules±SD of three wells for controls and each concentration of antisense or sense primers and five dishes for pcDNA3 control and pcDNA3-ERRα.
as §2

Data set [3] shares this test system. The experiment in a line: Cell number (cell counting) in RC cell cultures treated with ERRα antisense/sense oligonucleotides. It is filed as cell-based. The protocol: as §1
For cell growth analysis, the cell layers were rinsed in PBS, released with trypsin and collagenase (1:1, vol/vol, of solutions described above), and the harvested cells were counted electronically. Results are plotted as the average of three counts for each of three dishes for control and pcDNA3-ERRα or three wells for each concentration of antisense or sense primers used.
as §2

The mark [4] stands for this setting: treated days 1-6, day 15, vs control or sense-treated.

The values that follow come from US7585637B2, “Estrogen related receptor, ERRα, a regulator of bone formation” (priority 1999, dated 2009).

Take TGFβ: in the data set on ERRα mRNA, the “effect of acute exposure on ERRα mRNA levels” value was “no effect” and the “stimulation of ERRα mRNA expression at times later than day 6” value is given as “not later”. In addition, in the data set with ERRα mRNA (day 6), the “stimulation (increase) of ERRα mRNA expression” value was determined as 400%.

On to `CCCCC[C@H](O)/C=C/[C@H]1[C@H](O)CC(=O)[C@@H]1C/C=C\CCCC(=O)O` [PGE2], for which the “effect on ERRα expression” value with ERRα mRNA (RC cells, PGE2 10^−9 M, Dex) is listed as “Neither PGE2 nor Dex had any significant effect”.

For the compound `C[C@@H]1C[C@H]2[C@@H]3CCC4=CC(=O)C=C[C@]4(C)[C@@]3(F)[C@@H](O)C[C@]2(C)[C@@]1(O)C(=O)CO` [Dex, dexamethasone], the “effect of acute treatment on ERRα expression level” value with ERRα mRNA (24 hour acute treatment of RC cells at day 9 or day 15) is reported as “no effect”.

“5′TCACCGGGGGTTCAGTCTCA-3′(SEQ ID NO:30) (all phosphorothioate, sugars by position and methylation of C not given here) [antisense oligonucleotide]”: the “ERRα detection in bone nodules” value in the data set on ERRα is reported as “almost undetectable”. Moreover, the ALP expression entry in data set [1] (treated day 5 to day 11) is recorded as “not affected”; in data set [1] (treated days 1-6, day 6) it was “not significantly affected”; in data set [1] (setting [4]), “remained lower”; in data set [1] (treated days 9-15) it was “not BSP, COLLI or ALP were decreased”. For the same compound, the BSP expression result in data set [1] (treated day 5 to day 11) was “decreased”; in data set [1] (treated days 1-6, day 6), “reduced significantly”; in data set [1] (setting [4]), “remained lower”; in data set [1] (treated days 9-15), “not BSP, COLLI or ALP were decreased”. The COLLI expression entry in data set [1] (treated day 5 to day 11) is recorded as “not affected”; in data set [1] (treated days 1-6, day 6), “not significantly affected”; in data set [1] (treated days 1-6, day 15), “not significantly altered”; in data set [1] (treated days 9-15), “not BSP, COLLI or ALP were decreased”. The OCN expression entry in data set [1] (treated day 5 to day 11) is “decreased”; in data set [1] (treated days 1-6, day 15), “not significantly altered”; in data set [1] (treated days 9-15), “decreased”. In addition, the OPN expression entry in data set [1] (treated day 5 to day 11) is on record as “not affected”; in data set [1] (treated days 1-6, day 6) it was “not significantly affected”; in data set [1] (treated days 1-6, day 15) it was “not significantly altered”; in data set [1] (treated days 9-15), “decreased”. Also, the cbfa1 expression entry is “decreased” in data set [1] (treated day 5 to day 11) and “reduced significantly” in data set [1] (treated days 1-6, day 6). Also, the Bax expression result in data set [1] (treated days 1-6, day 6) is reported as “not significantly affected”. In addition, in data set [1] (treated days 1-6, day 6), the Bcl2 expression entry is given as “not significantly affected”. Besides, in data set [1] (treated days 1-6, day 6), the “Cyclin D1 expression” value is given as “reduced but it did not reach statistical significance”. Also, the c-Fos expression result in data set [1] (treated days 1-6, day 6) is on record as “not significantly affected”. Further, the “decrease in mineralized bone nodule formation” value in data set [2] (0.5 μM) is given as 30%; in data set [2] (1 μM), 60%; in data set [2] (2 μM), 100%. The “decrease in mineralized bone nodule number” value in data set [2] (1 μM) is reported as 29%; in data set [2] (2 μM), 45%. The “decrease in the number of mineralized bone nodules formed” value in data set [2] (treated days 9-15, 1 μM) came to 17%; in data set [2] (treated days 9-15, 2 μM) it was 27%. In addition, in data set [2] (treated days 9-15, compared to control cultures), the “surface area covered by bone nodules that did form” value is recorded as “greater surface area”. Besides, the “decrease in cell number” value was found to be 30% in data set [3] (RC cells treated days 1-6, counted at day 6, 1 μM, vs sense or untreated controls); 40% in data set [3] (RC cells treated days 1-6, counted at day 6, 2 μM, vs sense or untreated controls); 19% in data set [3] (treated day 5 to day 11, by day 15, 1 μM); 35% in data set [3] (treated day 5 to day 11, by day 15, 2 μM).

Consider PTH-1-34: 1-34 PTH (Sigma), for which the “decrease of ERRα after acute exposure” value with ERRα mRNA (acute exposure at day 7) is 25%; with ERRα mRNA (acute exposure at day 16), 33%. The “inhibition of ERRα” value in the data set on ERRα mRNA (continuous 10^−11 M, day 6) is 15%; in the data set with ERRα mRNA (continuous 10^−11 M, day 15), 26%. Besides, the “increase of ERRα” value in the data set on ERRα mRNA (continuous 10^−11 M, day 12) was 20%.

On to `C=C1/C(=C\C=C2/CCC[C@]3(C)[C@@H]([C@H](C)CCCC(C)(C)O)CC[C@@H]23)C[C@@H](O)C[C@@H]1O` [D3, 1,25(OH)2 vitamin D3], for which, in the data set with ERRα mRNA, the “effect of acute exposure on ERRα mRNA levels” value is reported as “no effect” and the “stimulation of ERRα mRNA expression at times later than day 6” value is recorded as “not later”. The “stimulation (increase) of ERRα mRNA expression” value in the data set with ERRα mRNA (day 6) worked out at 47%.
